Assay results: ChEMBL document CHEMBL1155148 (Antimicrob Agents Chemother, 2007)

How the values were obtained:
[1] = Plasma concentration in human at 400 mg, po once daily after 4 days; format: ADME, organism-based
[2] = Plasma concentration in human with MDR1 3435 CC or CT genotype at 400 mg, po once daily after 14 days coadministered with rifampin at 600 […], po once daily; format: ADME, organism-based; design: route oral
[3] = Tmax in human at 400 mg, po once daily after 4 days; format: ADME, organism-based; details: in vivo
[4] = Tmax in human with MDR1 3435 CC or CT genotype at 400 mg, po once daily after 4 days; format: ADME, organism-based; details: in vivo
[5] = AUC (0 to 24 hrs) in human at 400 mg, po once daily after 14 days coadministered with rifampin at 600 mg, po once daily; format: ADME, organism-based; design: dose 400 mg, time < 24 hr, route oral; details: plasma
[6] = Plasma concentration in human with MDR1 3435 CC genotype at 400 mg, po once daily after 4 days; format: ADME, organism-based
[7] = Tmax in human at 400 mg, po once daily after 14 days coadministered with rifampin at 600 mg, po once daily; format: ADME, organism-based; details: in vivo
[8] = AUC (0 to 24 hrs) in human with MDR1 3435 CT or TT genotype at 400 mg, po once daily after 14 days coadministered with rifampin at 600 mg, po once daily; details: plasma
[9] = AUC (0 to 24 hrs) in human with MDR1 3435 CC or CT genotype at 400 mg, po once daily after 4 days; format: ADME, organism-based; design: dose 400 mg, time < 24 hr, route oral; details: plasma
[10] = AUC (0 to 24 hrs) in human with MDR1 3435 CC genotype at 400 mg, po once daily after 4 days; format: ADME, organism-based; design: dose 400 mg, time < 24 hr, route oral; details: plasma
[11] = Tmax in human with MDR1 3435 CC or CT genotype at 400 mg, po once daily after 14 days coadministered with rifampin at 600 […], po once daily; format: ADME, organism-based; design: route oral; details: in vivo
[12] = AUC (0 to 24 hrs) in human with MDR1 3435 CC genotype at 400 mg, po once daily after 14 days coadministered with rifampin at 600 […], po once daily; format: ADME, organism-based; design: time < 24 hr, route oral; details: plasma
[13] = Plasma concentration in human with MDR1 3435 CC genotype at 400 mg, po once daily after 14 days coadministered with rifampin at 600 […], po once daily; format: ADME, organism-based; design: route oral
[14] = Tmax in human with MDR1 3435 CC genotype at 400 mg, po once daily after 4 days; format: ADME, organism-based; details: in vivo
[15] = Plasma concentration in human with MDR1 3435 CC or CT genotype at 400 mg, po once daily after 4 days; format: ADME, organism-based
[16] = Tmax in human with MDR1 3435 CC genotype at 400 mg, po once daily after 14 days coadministered with rifampin at 600 […], po once daily; format: ADME, organism-based; design: route oral; details: in vivo
[17] = Plasma concentration in human at 400 mg, po once daily after 14 days coadministered with rifampin at 600 mg, po once daily; format: ADME, organism-based
[18] = AUC (0 to 24 hrs) in human at 400 mg, po once daily after 4 days; format: ADME, organism-based; design: dose 400 mg, time < 24 hr, route oral; details: plasma
[19] = Plasma concentration in human at 600 mg, po once daily after 14 days coadministered with moxifloxacin at 400 mg, po once daily; format: ADME, organism-based
[20] = AUC (0 to 24 hrs) in human at 600 mg, po once daily after 14 days coadministered with moxifloxacin at 400 mg, po once daily; format: ADME, organism-based; design: dose 600 mg, time < 24 hr, route oral; details: plasma

Row | SMILES | concentration at 96 h [1] [ng/mL] | concentration at 336 h [2] [ng/mL] | Tmax [3] [h] | Tmax [4] [h] | AUC at 24 h [5] [ng·h/mL] | concentration at 96 h [6] [ng/mL] | Tmax [7] [h] | AUC at 24 h [8] [ng·h/mL] | AUC at 24 h [9] [ng·h/mL] | AUC at 24 h [10] [ng·h/mL] | Tmax [11] [h] | AUC at 24 h [12] [ng·h/mL] | concentration at 336 h [13] [ng/mL] | Tmax [14] [h] | concentration at 96 h [15] [ng/mL] | Tmax [16] [h] | concentration at 336 h [17] [ng/mL] | AUC at 24 h [18] [ng·h/mL] | concentration at 336 h [19] [ng/mL] | AUC at 24 h [20] [ng·h/mL]
1 | COc1c(N2C[C@@H]3CCCN[C@@H]3C2)c(F)cc2c(=O)c(C(=O)O)cn(C3CC3)c12 [MOXIFLOXACIN] | 3800 | 3830 | 1.97 | 1.91 | 29200 | 3530 | 1.56 | 30300 | 39700 | 37200 | 1.05 | 25500 | 2940 | 1.47 | 3810 | 1.98 | 3600 | 39400 | – | –
2 | CO[C@H]1/C=C/O[C@@]2(C)Oc3c(C)c(O)c4c(O)c(c(/C=N/N5CCN(C)CC5)c(O)c4c3C2=O)NC(=O)/C(C)=C\C=C\[C@H](C)[C@H](O)[C@@H](C)[C@@H](O)[C@@H](C)[C@H](OC(C)=O)[C@@H]1C [RIFAMPIN] | – | – | – | – | – | – | – | – | – | – | – | – | – | – | – | – | – | – | 9900 | 44000
